Source: patent publication US9849212B2, “Implants for inducing soft and hard tissue integration” (NUMAT BIOMEDICAL S.L., priority 2013, dated 2017)

Key:
Format in all cases: physicochemical
[1] = Flavonoid release profile by UV-Vis spectroscopy, simulating hUC-MSCs culture media changes; settings: water pH 7.5, 37° C.
Method: (§1) The flavonoid release profile from coated surfaces in water media, simulating physiologic conditions (pH 7.5, 37° C.) was measured by UV-Vis spectroscopy. Implants were placed in a 96 well plate and 200 μl of water at pH 7.5 were added to each well. […] Each time, a 150 μl aliquot was withdrawn and the absorbance (λTaxifolin=290 nm, λQuercitrin=350 nm) was measured in a 96 well Elisa plate using a Biotek UV-vis plate reader spectrophotometer. The concentration of flavonoid was calculated from interpolation of data in flavonoid standard calibration curves. Two replicates were measured for each sample. Passivated Ti substrates were used as blank samples for drop casted implants. Silanized Ti substrates were used as blank for covalently linked samples.

[2] = Biomolecule release by UV-vis spectrometry after 24 h incubation in water; settings: covalent linking via APTES, water pH 7.5, 37° C.
Method: The biomolecule release from functionalized implants after 24 h incubation in water at pH 7.5 and 37° C. was determined by UV-Vis spectroscopy. Implants were placed in a 96 well plate and 200 μl of water at pH 7.5 were added to each well. Samples were incubated at 37° C. during 24 h. Then, a 150 μl aliquot was withdrawn and the absorbance (λmax taxifolin=290 nm, λmax quercitrin=350 nm) was measured using a Biotek UV-vis plate reader spectrophotometer. Two sample replicates were measured.

[3] = Flavonoid release profile by UV-Vis spectroscopy, simulating HGF culture media changes; settings: water pH 7.5, 37° C.
Method: as §1

[4] = Schiff base, not reduced (experiment FL14)

## O=C1c2c(O)cc(O)cc2O[C@H](c2ccc(O)c(O)c2)[C@H]1O [TX, taxifolin]
[1]; Schiff base, not reduced (experiment FL17)
  total amount released after 14 days: 2.6 ± 0.2 nmol
[1]; drop casted substrates (experiment FL16), initial 20 nmol/disk taxifolin, 50 nmol/disk quercitrin, up to 14 days
  total amount released to media: 19.7 ± 0.7 nmol
[1]; reduced Schiff base surfaces (experiment FL18), up to 14 days
  flavonoid detected in the media: No taxifolin neither quercitrin were detected
[2]; Ti pretreat. UV, reduction step No (Schiff base)
  C μM, 24 h (release of flavonoid to water media): 5.06 ± 0.59 µM
[2]; Ti pretreat. UV, reduction step Yes (reduced Schiff base)
  C μM, 24 h (release of flavonoid to water media): No det.
[2]; Ti pretreat. passivation, reduction step No (Schiff base)
  C μM, 24 h (release of flavonoid to water media): 10.22 ± 1.88 µM
[2]; Ti pretreat. passivation, reduction step Yes (reduced Schiff base)
  C μM, 24 h (release of flavonoid to water media): No det.
[3]; [4]
  cumulative release at day one: 12.4 ± 4.0 nmol
  released amount from 1 to 14 days: not significant
[3]; covalently linked by Schiff base formation, not reduced (experiment FL14)
  flavonoid released to the media after 1 h of incubation: 7.9 ± 2.7 nmol
[3]; drop casted substrates (experiment FL13), 6 nmol/disk taxifolin
  completeness of release at day 1: almost complete
[3]; drop casted substrates (experiment FL13), initial 6 nmol/disk taxifolin, 100 nmol/disk quercitrin
  flavonoid released to the media after 1 h of incubation: ~3.2 ± 0.4 nmol
[3]; reduced Schiff base surfaces (experiment FL15), up to 14 days
  flavonoid detected in the media: No taxifolin neither quercitrin were detected
